Experimental data reported in patent publication US11649255B2, “Indazoles as hematopoietic progenitor kinase 1 (HPK1) inhibitors and methods using same” (1st Biotherapeutics, Inc., priority 2020, dated 2023).
One block for each compound: values may come before it.

Biological target: recombinant human HPK1 (Homo sapiens (Human), UniProt Q92918)
Assay: HPK1 kinase assay (ADP-Glo)
Assay type: biochemical
Conditions: 25 μM ATP, MBP substrate
Procedure, shortened: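 Activity was read as ADP formed, detected by ADP-Glo luminescence after the reaction of 5 ng recombinant human HPK1 with MBP and ATP (stocks 0.5 μg/μl and 25 μM) for 40 min at 30 °C. Buffer was Tris pH 7.5 with MgCl2, BSA and DTT, with compound in 0.5% DMSO. IC50 came from inhibition curves.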

Chain of recombinant human HPK1 (Q92918 whole entry): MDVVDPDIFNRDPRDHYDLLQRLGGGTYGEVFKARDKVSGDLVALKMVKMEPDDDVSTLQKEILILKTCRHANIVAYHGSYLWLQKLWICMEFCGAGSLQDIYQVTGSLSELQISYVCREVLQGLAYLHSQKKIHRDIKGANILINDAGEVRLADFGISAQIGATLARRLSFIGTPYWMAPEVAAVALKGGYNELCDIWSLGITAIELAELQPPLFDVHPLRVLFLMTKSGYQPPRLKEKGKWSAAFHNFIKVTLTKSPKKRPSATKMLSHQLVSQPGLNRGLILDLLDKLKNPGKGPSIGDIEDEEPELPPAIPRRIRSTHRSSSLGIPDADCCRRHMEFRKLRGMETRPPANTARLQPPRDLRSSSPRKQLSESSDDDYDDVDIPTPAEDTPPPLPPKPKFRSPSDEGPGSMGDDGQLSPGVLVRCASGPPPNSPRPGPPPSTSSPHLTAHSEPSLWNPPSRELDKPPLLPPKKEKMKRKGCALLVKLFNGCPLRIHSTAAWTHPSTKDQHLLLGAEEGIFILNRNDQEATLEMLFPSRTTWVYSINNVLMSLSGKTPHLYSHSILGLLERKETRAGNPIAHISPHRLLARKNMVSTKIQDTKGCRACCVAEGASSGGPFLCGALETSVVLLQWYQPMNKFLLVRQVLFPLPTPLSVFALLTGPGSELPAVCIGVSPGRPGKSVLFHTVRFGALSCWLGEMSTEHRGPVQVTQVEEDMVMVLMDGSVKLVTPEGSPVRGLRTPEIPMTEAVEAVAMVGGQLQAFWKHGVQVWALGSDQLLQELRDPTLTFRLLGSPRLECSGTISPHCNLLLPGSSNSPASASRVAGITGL

- IC50: 101 to 500 nM
SMILES: CS(=O)(=O)c1c(F)c(Cl)c(-c2ccc3nc(NC(=O)[C@@H]4C[C@@H]4F)sc3c2)c2cn[nH]c12 [Example 119, (1S,2S)-N-(6-(5-chloro-6-fluoro-7-(methylsulfonyl)-1H-indazol-4-yl)benzo[d]thiazol-2-yl)-2-fluorocyclopropane-1-carboxamide]

- IC50: < 100 nM
SMILES: CC(=O)Nc1c(F)c(Cl)c(-c2ccc3nc(NC(=O)[C@@H]4C[C@@H]4F)cn3c2)c2cn[nH]c12 [Example 301]

- IC50: < 100 nM
SMILES: CN(C)c1c(F)cc(-c2ccc3nc(NC(=O)[C@@H]4C[C@@H]4F)sc3c2)c2cn[nH]c12 [Example 139, (1S,2S)-N-(6-(7-(dimethylamino)-6-fluoro-1H-indazol-4-yl)benzo[d]thiazol-2-yl)-2-fluorocyclopropane-1-carboxamide]

- IC50: 101 to 500 nM
SMILES: Cc1ccc2[nH]ncc2c1-c1ccc2nc(NC(=O)[C@@H]3C[C@@H]3F)sc2c1 [Example 2, (1S,2S)-2-fluoro-N-(6-(5-methyl-1H-indazol-4-yl)benzo[d]thiazol-2-yl)cyclopropane-1-carboxamide]

- IC50: 101 to 500 nM
SMILES: CN(Nc1c(F)c(Cl)c(-c2ccc3nc(NC(=O)[C@@H]4C[C@@H]4F)sc3c2)c2cn[nH]c12)C(=O)OC(C)(C)C [Example 114, tert-butyl 2-(5-chloro-6-fluoro-4-(2-((1S,2S)-2-fluorocyclopropane-1-carboxamido)benzo[d]thiazol-6-yl)-1H-indazol-7-yl)-1-methylhydrazine-1-carboxylate]

- IC50: < 100 nM
SMILES: Cc1c(F)c(C)c2[nH]ncc2c1-c1ccc2nc(NC(=O)[C@@H]3C[C@@H]3F)sc2c1 [Example 59, (1S,2S)-2-fluoro-N-(6-(6-fluoro-5,7-dimethyl-1H-indazol-4-yl)benzo[d]thiazol-2-yl)cyclopropane-1-carboxamide]

- IC50: < 100 nM
SMILES: CN(c1ccncn1)c1c(F)c(Cl)c(-c2ccc3nc(NC(=O)[C@@H]4C[C@@H]4F)cn3c2)c2cn[nH]c12 [Example 348, (1S,2S)-N-(6-(5-chloro-6-fluoro-7-(methyl(pyrimidin-4-yl)amino)-1H-indazol-4-yl)imidazo[1,2-a]pyridin-2-yl)-2-fluorocyclopropane-1-carboxamide]

- IC50: < 100 nM
SMILES: C=Cc1c(F)c(Cl)c(-c2ccc3nc(NC(=O)[C@@H]4C[C@@H]4F)sc3c2)c2cn[nH]c12 [Example 61, (1S,2S)-N-(6-(5-chloro-6-fluoro-7-vinyl-1H-indazol-4-yl)benzo[d]thiazol-2-yl)-2-fluorocyclopropane-1-carboxamide]

- IC50: < 100 nM
SMILES: O=C(Nc1cn2cc(-c3c(Cl)c(F)c(Cl)c4[nH]ncc34)ccc2n1)[C@@H]1C[C@@H]1F [Example 256, (1S,2S)-N-(6-(5,7-dichloro-6-fluoro-1H-indazol-4-yl)imidazo[1,2-a]pyridin-2-yl)-2-fluorocyclopropane-1-carboxamide]

- IC50: < 100 nM
SMILES: CCOc1c(F)c(CC)c(-c2ccc3nc(NC(=O)[C@@H]4C[C@@H]4F)sc3n2)c2cn[nH]c12 [Example 178, (1S,2S)-N-(5-(7-ethoxy-5-ethyl-6-fluoro-1H-indazol-4-yl)thiazolo[5,4-b]pyridin-2-yl)-2-fluorocyclopropane-1-carboxamide]

- IC50: 101 to 500 nM
SMILES: CS(=O)(=O)c1c(F)c(Cl)c(-c2ccc3nc(NC(=O)[C@@H]4C[C@@H]4F)sc3n2)c2cn[nH]c12 [Example 185, (1S,2S)-N-(5-(5-chloro-6-fluoro-7-(methylsulfonyl)-1H-indazol-4-yl)thiazolo[5,4-b]pyridin-2-yl)-2-fluorocyclopropane-1-carboxamide]

- IC50: < 100 nM
SMILES: CSc1c(F)c(Cl)c(-c2ccn3nc(NC(=O)[C@@H]4C[C@@H]4F)cc3c2)c2cn[nH]c12 [Example 485, (1S,2S)-N-(5-(5-chloro-6-fluoro-7-(methylthio)-1H-indazol-4-yl)pyrazolo[1,5-a]pyridin-2-yl)-2-fluorocyclopropane-1-carboxamide]

- IC50: < 100 nM
SMILES: CCc1c(F)c(N(C)CC)c2[nH]ncc2c1-c1ccc2nc(NC(=O)[C@@H]3C[C@@H]3F)sc2n1 [Example 200, (1S,2S)-N-(5-(5-ethyl-7-(ethyl(methyl)amino)-6-fluoro-1H-indazol-4-yl)thiazolo[5,4-b]pyridin-2-yl)-2-fluorocyclopropane-1-carboxamide]

- IC50: < 100 nM
SMILES: CCc1c(F)c(SC)c2[nH]ncc2c1-c1ccc2nc(NC(=O)[C@@H]3C[C@@H]3F)sc2c1 [Example 103, (1S,2S)-N-(6-(5-ethyl-6-fluoro-7-(methylthio)-1H-indazol-4-yl)benzo[d]thiazol-2-yl)-2-fluorocyclopropane-1-carboxamide]

- IC50: < 100 nM
SMILES: CSc1c(F)c(F)c2[nH]ncc2c1-c1ccc2nc(NC(=O)[C@@H]3C[C@@H]3F)sc2c1 [Example 117, (1S,2S)-N-(6-(6,7-difluoro-5-(methylthio)-1H-indazol-4-yl)benzo[d]thiazol-2-yl)-2-fluorocyclopropane-1-carboxamide 2,2,2-trifluoroacetate]

Second part, the compound before the results:

SMILES: Cc1c(F)cc2[nH]nc(C)c2c1-c1ccn2nc(NC(=O)[C@@H]3C[C@@H]3F)cc2c1 [Example 470, (1S,2S)-2-fluoro-N-(5-(6-fluoro-3,5-dimethyl-1H-indazol-4-yl)pyrazolo[1,5-a]pyridin-2-yl)cyclopropane-1-carboxamide]
- IC50: 101 to 500 nM

SMILES: C=Cc1c(F)cc2[nH]ncc2c1-c1ccn2nc(NC(=O)[C@@H]3C[C@@H]3F)cc2c1 [Example 447, (1S,2S)-2-fluoro-N-(5-(6-fluoro-5-vinyl-1H-indazol-4-yl)pyrazolo[1,5-a]pyridin-2-yl)cyclopropane-1-carboxamide]
- IC50: < 100 nM

SMILES: COc1cc(C)c(-c2ccc3nc(NC(=O)[C@@H]4C[C@@H]4F)cn3c2)c2cn[nH]c12 [Example 285, (1S,2S)-2-fluoro-N-(6-(7-methoxy-5-methyl-1H-indazol-4-yl)imidazo[1,2-a]pyridin-2-yl)cyclopropane-1-carboxamide]
- IC50: < 100 nM

SMILES: CN(C)C(=O)c1ccn(-c2c(F)c(Cl)c(-c3ccn4nc(NC(=O)[C@@H]5C[C@@H]5F)cc4c3)c3cn[nH]c23)c1 [Example 649, 1-(5-chloro-6-fluoro-4-(2-((1S,2S)-2-fluorocyclopropane-1-carboxamido)pyrazolo[1,5-a]pyridin-5-yl)-1H-indazol-7-yl)-N,N-dimethyl-1H-pyrrole-3-carboxamide]
- IC50: < 100 nM

SMILES: CNNc1c(F)c(Cl)c(-c2ccn3nc(NC(=O)[C@@H]4C[C@@H]4F)cc3c2)c2cn[nH]c12 [Example 553, (1S,2S)-N-(5-(5-chloro-6-fluoro-7-(2-methylhydrazineyl)-1H-indazol-4-yl)pyrazolo[1,5-a]pyridin-2-yl)-2-fluorocyclopropane-1-carboxamide]
- IC50: < 100 nM

SMILES: Cc1c(F)cc2[nH]ncc2c1-c1ccn2nc(NC(=O)[C@@H]3C[C@@H]3F)cc2c1 [Example 460, (1S,2S)-2-fluoro-N-(5-(6-fluoro-5-methyl-1H-indazol-4-yl)pyrazolo[1,5-a]pyridin-2-yl)cyclopropane-1-carboxamide]
- IC50: < 100 nM

SMILES: CCc1c(F)cc2[nH]ncc2c1-c1ccc2nc(NC(=O)C3CC3)cn2c1 [Example 248, N-(6-(5-ethyl-6-fluoro-1H-indazol-4-yl)imidazo[1,2-a]pyridin-2-yl)cyclopropanecarboxamide]
- IC50: < 100 nM

SMILES: O=C(Nc1cc2cc(-c3c(Cl)c(F)c(Cl)c4[nH]ncc34)ccn2n1)[C@@H]1C[C@@H]1F [Example 476, (1S,2S)-N-(5-(5,7-dichloro-6-fluoro-1H-indazol-4-yl)pyrazolo[1,5-a]pyridin-2-yl)-2-fluorocyclopropane-1-carboxamide]
- IC50: < 100 nM

SMILES: C#Cc1n[nH]c2cc(F)c(C)c(-c3ccn4nc(NC(=O)[C@@H]5C[C@@H]5F)cc4c3)c12 [Example 472, (1S,2S)-N-(5-(3-ethynyl-6-fluoro-5-methyl-1H-indazol-4-yl)pyrazolo[1,5-a]pyridin-2-yl)-2-fluorocyclopropane-1-carboxamide]
- IC50: > 1000 nM

SMILES: CN(CC#N)C(=O)c1c(F)c(Cl)c(-c2ccn3nc(NC(=O)[C@@H]4C[C@@H]4F)cc3c2)c2cn[nH]c12 [Example 612, 5-chloro-N-(cyanomethyl)-6-fluoro-4-(2-((1S,2S)-2-fluorocyclopropane-1-carboxamido)pyrazolo[1,5-a]pyridin-5-yl)-N-methyl-1H-indazole-7-carboxamide]
- IC50: < 100 nM

SMILES: CN(Nc1c(F)c(Cl)c(-c2ccn3nc(NC(=O)[C@@H]4C[C@@H]4F)cc3c2)c2cn[nH]c12)C(=O)OC(C)(C)C [Example 542, tert-butyl 2-(5-chloro-6-fluoro-4-(2-((1S,2S)-2-fluorocyclopropane-1-carboxamido)pyrazolo[1,5-a]pyridin-5-yl)-1H-indazol-7-yl)-1-methylhydrazine-1-carboxylate]
- IC50: < 100 nM

SMILES: O=C(Nc1nc2ccc(-c3ccc(Cl)c4[nH]ncc34)cc2s1)C1CC1 [Example 19, N-(6-(7-chloro-1H-indazol-4-yl)benzo[d]thiazol-2-yl)cyclopropanecarboxamide]
- IC50: > 1000 nM

SMILES: CNC(=O)c1c(F)c(C)c(-c2ccn3nc(NC(=O)[C@@H]4C[C@@H]4F)cc3c2)c2cn[nH]c12 [Example 584, 6-fluoro-4-(2-((1S,2S)-2-fluorocyclopropane-1-carboxamido)pyrazolo[1,5-a]pyridin-5-yl)-N,5-dimethyl-1H-indazole-7-carboxamide]
- IC50: 101 to 500 nM

SMILES: C=CC(=O)Nc1cc2[nH]ncc2c(-c2ccc3nc(NC(=O)[C@@H]4C[C@@H]4F)cn3c2)c1Cl [Example 286, (1S,2S)-N-(6-(6-acrylamido-5-chloro-1H-indazol-4-yl)imidazo[1,2-a]pyridin-2-yl)-2-fluorocyclopropane-1-carboxamide]
- IC50: > 1000 nM

SMILES: O=C(Nc1cn2cc(-c3cccc4[nH]ncc34)ccc2n1)[C@@H]1C[C@@H]1F [Example 222, (1S,2S)-N-(6-(1H-indazol-4-yl)imidazo[1,2-a]pyridin-2-yl)-2-fluorocyclopropane-1-carboxamide]
- IC50: 501 to 1000 nM

SMILES: O=C(Nc1cc2cc(-c3c(Cl)c(F)c(N4CCC4)c4[nH]ncc34)ccn2n1)[C@@H]1C[C@@H]1F [Example 501, (1S,2S)-N-(5-(7-(azetidin-1-yl)-5-chloro-6-fluoro-1H-indazol-4-yl)pyrazolo[1,5-a]pyridin-2-yl)-2-fluorocyclopropane-1-carboxamide]
- IC50: < 100 nM
